# Assay results taken from US20130287688A1, “NOVEL COMPOSITIONS AND USES OF ANTI-HYPERTENSION AGENTS FOR CANCER THERAPY” (XTUIT PHARMACEUTICALS, INC., priority 2010, published 2013).
# How the values were obtained:
# E0771 tumors = experiment: Tissue oxygenation by phosphorescence quenching microscopy; assay type: in vivo, mice; conditions: versus control tumors that become more hypoxic with time
# Protocol: Oxygenation was then studied using phosphorescence quenching microscopy.
# An oxygen-sensitive porphyrin, Oxyphor R2 (Oxygen Enterprises) was injected retro-orbitally 12 hrs prior to imaging, and was reinjected immediately prior to imaging along with 2MDa FITC-dextran (Sigma-Aldrich) for functional vascular tracing. A mosaic image of the tumor was collected, and oxygen was then measured in an evenly spaced 12×12 grid at four depths (60, 120, 180, and 240 μm) in the tumor. At each point in the grid, the phosphorescence lifetime of the probe was measured after each of several repeated brief intense pulses of 1020 nm laser light, and these lifetime measurements were combined. A two-component model was used to calculate the oxygen tension from each lifetime measurement, accounting for binding and quenching of the probe by both oxygen and proteins. The grid was then overlayed on the mosaic images to make an oxygen map.
# E0771 breast tumors = experiment: Tumor matrix level histology (collagen I); set-up: species or system SCID mouse; conditions: mouse, in vivo
# Protocol: Collagen levels were used as a metric of matrix production as described in Diop-Frimpong et al., Proc Nall Acad Sci USA. […] Next, solid stress in these tumors was measured using recently established technique described in Stylianopoulos T, et al., Growth-induced mechanical stress in murine and human tumors: causes, consequences and remedies. under review.
# Vessel perfusion, matrix level, and hypoxia histology: For breast tumors, mice bearing orthotopic E0771 were split into treatment groups, time-matched for time after implantation and size-matched for tumor volume at this time (−100 mm^3). For pancreatic tumors, mice bearing orthotopic AK4.4 were split into treatment groups, size-matched for tumor volume (˜22 mm^3), 6 days after implantation. […] On the day of the last treatment, mice were slowly (−2 min) injected with 100 μL of 1 mg/mL biotinylated lectin (Vector Labs), administered retro-orbitally 5 min prior to tumor removal. For hypoxia studies, the mice were also injected with 60 mg/kg of 10 mg/mL pimonidazole 1 hr prior to tumor removal. […] For matrix staining, collagen I was detected using the LF-67 antibody provided by Dr. Larry Fisher (National Institute of Dental Research, Bethesda, Md.).
# Histological image analysis: Eight random images (four interior, four periphery) at 20× magnification were taken from each slide using a confocal microscope (Olympus). […] For perfusion, the number of vessels counted by this program with colocalization of lectin and CD31 staining was divided by the number of vessels counted with CD31 staining. For vessel metrics, including diameter and density, the program determined the average size of all counted vessels and their length, as well as the count per area Images of collagen I stained sections were analyzed based on the area fraction of positive staining and on the average staining intensity (concentration) in each image. […] Images of hypoxia staining with pimonidazole were similarly analyzed for the area fraction of positive staining, counting the fraction of pixels above a threshold based on background intensity.
# [1] = test system: FVB MMTV PyVT spontaneous mammary carcinoma; experiment: Collagen I immunostaining of tumor sections; assay type: in vivo, mice; conditions: 20 mg/kg/day, two weeks (FIG. 5B)
# Protocol: Human soft tissue sarcoma (HSTS26T) and human melanoma (Mu89) tumors were grown subcutaneously in the legs and dorsal skin fold chamber of severe combined immunodeficient (SCID) mice (Leunig M, et al. (1992) Cancer Res 52:6553-6560). Human pancreatic adenocarcinoma cells (L3.6PL) were grown orthotopically in the pancreas of SCID mice. L3.6PL tumors were induced with a sub-capsular injection of one million cells in the tail of the pancreas. Tumor sizes were monitored in spontaneous FVB/N-Tg (MMTV-PyVT) 634MU1/J mice and tumors selected for treatment when they reached a size of 4 to 6 mm in diameter (Guy C T et al. (1992) Mol Cell Biol 12:954-961).
# Cozaar (losartan potassium) tablets were ground using a mortar and pestle. The powder was then dissolved in water to obtain a concentration of 2.5 mg/ml. […]
# Frozen sections were cut into 10 μm sections for immunohistochemistry and imaging. Collagen I was detected using the LF-67 antibody (1:100 dilution) with a previously described protocol (Znati C A, et al. (2003) Clin Cancer Res 9:5508-5513). TSP-1 was detected with a goat anti-human antibody (1:50 dilution), which cross-reacts with mice (sc-12312, Santa Cruz Biotechnology Inc., Santa Cruz, Calif.). […] The collagen and TSP-1 content was determined by measuring the number of pixels above a threshold value that was set based on the average intensity value of pixels from all slides under analysis. […]
# HSTS26T tumors = experiment: TSP-1 immunostaining of tumor sections; assay type: in vivo, SCID mice; conditions: losartan treatment
# From the text: (§1) TSP-1 is a key regulator of TGF-β1 activation and losartan has been reported to reduce TSP-1 expression and TGF-β1 activation in mouse models of Marfan's syndrome and muscular dystrophy (Dietz H C (2010) J Clin Invest 120:403-407). […] In both Mu89 and HSTS26T tumors the immunostaining patterns for TSP-1 (FIGS. 7A-7B) and collagen I (FIGS. 5C-5D) were closely matched. The inventors detected high levels of TSP-1 and collagen I in the tumor margin, while losartan induced obvious reductions in TSP-1 and collagen I levels in the tumor center (FIGS. 5C, 7A).
# (§2) Frozen sections were cut into 10 μm sections for immunohistochemistry and imaging. Collagen I was detected using the LF-67 antibody (1:100 dilution) with a previously described protocol (Znati C A, et al. (2003) Clin Cancer Res 9:5508-5513). TSP-1 was detected with a goat anti-human antibody (1:50 dilution), which cross-reacts with mice (sc-12312, Santa Cruz Biotechnology Inc., Santa Cruz, Calif.). For collagen and TSP-1 analysis, images at 20× magnification were taken randomly from each slide. The collagen and TSP-1 content was determined by measuring the number of pixels above a threshold value that was set based on the average intensity value of pixels from all slides under analysis. The background-signal intensity for both collagen I and thrombospondin-1 immunostaining was low and uniform.
# Mu89 tumors = experiment: TSP-1 immunostaining of tumor sections; assay type: in vivo, SCID mice; conditions: losartan treatment
# From the text: as §1, §2
structure (smiles),measurement,setting,value
CCCCc1nc(Cl)c(CO)n1Cc1ccc(-c2ccccc2-c2nn[nH]n2)cc1 [losartan],tissue oxygenation,E0771 tumors,maintains the level of oxygenation
same,concentration of collagen I (staining intensity),E0771 breast tumors,reduces
same,"matrix production, collagen I area fraction",E0771 breast tumors,decreases
same,reduction in collagen I immunostaining,[1],47%
same,decrease in TSP-1 immunostaining,HSTS26T tumors,73%
same,decrease in TSP-1 immunostaining,Mu89 tumors,24%
